# Test results: patent US9850283B2, “Macrocyclic inhibitors of the PD-1/PD-L1 and CD80(B7-1)/PD-L1 protein/protein interactions” (BRISTOL-MYERS SQUIBB COMPANY, priority 2013, dated 2017)
# Read-outs that look alike come from different tables or passages of the source. Positions of bridges follow the written chain, without caps; N, C: chain ends. Non-standard residues stand in square brackets, D forms with d. Residues, ends and D or L forms follow the SMILES beside them. ξ: configuration not given here. Phe(3,4-(OMe)2) = COc1ccc(C[C@H](N)C(=O)O)cc1OC; Phe(4-NH2) = Nc1ccc(C[C@H](N)C(=O)O)cc1; 2Nal = N[C@@H](Cc1ccc2ccccc2c1)C(=O)O; Bta = N[C@@H](Cc1csc2ccccc12)C(=O)O; Hyp = O=C(O)[C@@H]1C[C@@H](O)CN1; NMeF = CN[C@@H](Cc1ccccc1)C(=O)O; NMeNle = CCCC[C@H](NC)C(=O)O; NMeM = CN[C@@H](CCSC)C(=O)O; NMeA = CN[C@@H](C)C(=O)O; Orn = NCCC[C@H](N)C(=O)O; Dab = NCC[C@H](N)C(=O)O; Dap = NC[C@H](N)C(=O)O; ξC = NC(CS)C(=O)O; Sar = CNCC(=O)O
# Tests used:
# [1] = target: T1, LK35.2-hPD-L1 cells / PE-labeled PD-1-Ig (Homo sapiens, UniProt Q9NZQ7); experiment: LK35.2-hPD-L1 cell binding high-content screening assay; assay type: cell-based; conditions: cluster symbol, read-out: CBA IC50 cluster
# T1 construct: expressed in transfected cells; host or cells: LK35.2 mouse B cell line
# In short: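 Binding of PE-conjugated human PD-1-Ig (1 nM final) to human PD-L1 stably expressed on a mouse B-cell line (LK35.2) was measured by high-content imaging after washes. Compound and labeled PD-1-Ig were co-incubated 1 h at 37 °C with cells in RPMI/10% FCS.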
# Human PD-L1/PD-1 = target: T2, Human PD-L1/PD-1 (Homo sapiens, UniProt Q9NZQ7); experiment: HTRF PD-1-Ig/PD-L1-His binding assay (human PD-L1); conditions: cluster symbol; read-out: HTRF IC50 cluster
# T2 construct: made in house; host or cells: HEK293T
# In short: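 The time-resolved fluorescence signal comes from Eu-cryptate anti-Ig (1 nM) and APC anti-His (20 nM) antibodies bound to a PD-1-Ig/PD-L1-His complex. Both partners lack transmembrane regions.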
# [2] = cell line of CBA not given (LK35.2-hPD-L1 or 293T-hPD-L1)
# [3] = cell binding assay, cell line not given
# T1 sequence (Q9NZQ7 19-290): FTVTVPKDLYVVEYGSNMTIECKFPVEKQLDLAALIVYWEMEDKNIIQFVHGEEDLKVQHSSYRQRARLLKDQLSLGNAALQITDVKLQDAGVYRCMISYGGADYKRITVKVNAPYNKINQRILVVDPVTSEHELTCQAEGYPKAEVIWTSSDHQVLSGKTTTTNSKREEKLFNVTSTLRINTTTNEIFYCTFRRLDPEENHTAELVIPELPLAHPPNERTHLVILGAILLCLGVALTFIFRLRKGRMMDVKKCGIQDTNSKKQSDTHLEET
# T2 sequence (Q9NZQ7 with tags, fused parts or gaps): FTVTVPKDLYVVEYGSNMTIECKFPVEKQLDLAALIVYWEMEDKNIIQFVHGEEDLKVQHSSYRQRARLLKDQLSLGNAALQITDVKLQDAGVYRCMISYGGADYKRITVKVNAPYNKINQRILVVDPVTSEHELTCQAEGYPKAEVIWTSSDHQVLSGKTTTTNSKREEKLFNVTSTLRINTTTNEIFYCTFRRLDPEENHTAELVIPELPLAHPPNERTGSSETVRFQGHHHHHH
SMILES,"IC50 [1, 2] [nM]",IC50 (Human PD-L1/PD-1) [nM],"IC50 [1, 3] [nM]"
CCCC[C@H]1C(=O)N(C)[C@@H](CCCC)C(=O)N[C@@H](CCCN)C(=O)N[C@H](C(=O)NCC(N)=O)CSCC(=O)N[C@@H](Cc2ccc(O)cc2)C(=O)N(C)[C@@H](C)C(=O)N[C@@H](CC(N)=O)C(=O)N2CCC[C@H]2C(=O)N[C@@H](CN)C(=O)N[C@@H](CCC(=O)O)C(=O)N2C[C@H](O)C[C@H]2C(=O)N[C@@H](Cc2c[nH]c3ccccc23)C(=O)N[C@@H](CCN)C(=O)N[C@@H](Cc2csc3ccccc23)C(=O)N1C [Example 1185] ({CH2CO}-Y[NMeA]NP[Dap]E[Hyp]W[Dab][Bta][NMeNle][NMeNle][Orn]CG-NH2; thioether N-14),0.158 to 4.71,0.385 to 6.74,–
CCCC[C@H]1C(=O)N(C)[C@@H](CCCC)C(=O)N[C@@H](CCCCN)C(=O)N[C@H](C(=O)NCC(N)=O)CSCC(=O)N[C@@H](Cc2ccc(O)cc2)C(=O)N(C)[C@@H](C)C(=O)N[C@@H](CC(=O)O)C(=O)N2CCC[C@H]2C(=O)N[C@@H](Cc2c[nH]cn2)C(=O)N[C@@H](CCC(N)=O)C(=O)N2C[C@H](O)C[C@H]2C(=O)N[C@@H](Cc2c[nH]c3ccccc23)C(=O)N[C@@H](CO)C(=O)N[C@@H](Cc2c[nH]c3ccccc23)C(=O)N1C [Example 5120] ({CH2CO}-Y[NMeA]DPHQ[Hyp]WSW[NMeNle][NMeNle]KCG-NH2; thioether N-14),–,0.385 to 6.74,0.158 to 4.71
CCCC[C@H]1C(=O)N(C)CC(=O)N[C@@H](CC(=O)O)C(=O)N[C@@H](C(C)C)C(=O)N(C)[C@@H](Cc2ccccc2)C(=O)N[C@@H](Cc2ccc3ccccc3c2)C(=O)N(C)CC(=O)N[C@@H](Cc2c[nH]c3ccccc23)C(=O)N[C@@H](Cc2ccc(O)cc2)C(=O)N[C@@H](CC(C)C)C(=O)N[C@H](C(=O)NCC(N)=O)CSCC(=O)N[C@@H](Cc2ccccc2)C(=O)N(C)[C@@H](Cc2ccccc2)C(=O)N1C [Example 3535] ({CH2CO}-F[NMeF][NMeNle][Sar]DV[NMeF][2Nal][Sar]WYLCG-NH2; thioether N-13),–,> 30.5,4.78 to 72.9
"CCCC[C@H]1C(=O)N(C)CC(=O)N[C@@H](CC(=O)O)C(=O)N[C@@H](C(C)C)C(=O)N(C)[C@@H](Cc2ccccc2)C(=O)N[C@@H](Cc2ccc(OC)c(OC)c2)C(=O)N(C)CC(=O)N[C@@H](Cc2c[nH]c3ccccc23)C(=O)N[C@@H](Cc2ccc(O)cc2)C(=O)N[C@@H](CC(C)C)C(=O)N[C@H](C(=O)NCC(N)=O)CSCC(=O)N[C@@H](Cc2ccccc2)C(=O)N(C)[C@@H](Cc2ccccc2)C(=O)N1C [Example 3533] ({CH2CO}-F[NMeF][NMeNle][Sar]DV[NMeF][Phe(3,4-(OMe)2)][Sar]WYLCG-NH2; thioether N-13)",–,6.76 to 30.3,4.78 to 72.9
CCCC[C@H]1C(=O)N(C)[C@@H](CCCC)C(=O)N[C@@H](CCCNC(=N)N)C(=O)N[C@H](C(=O)NCC(N)=O)CSCC(=O)N[C@@H](Cc2ccc(N)cc2)C(=O)N(C)[C@@H](C)C(=O)N[C@@H](CC(N)=O)C(=O)N2CCC[C@H]2C(=O)N[C@@H](Cc2cnc[nH]2)C(=O)N[C@@H](CC(C)C)C(=O)N2C[C@H](O)C[C@H]2C(=O)N[C@@H](Cc2c[nH]c3ccccc23)C(=O)N[C@@H](CO)C(=O)N[C@@H](Cc2c[nH]c3ccccc23)C(=O)N1C [Example 7059] ({CH2CO}-[Phe(4-NH2)][NMeA]NPHL[Hyp]WSW[NMeNle][NMeNle]RCG-NH2; thioether N-14),–,0.385 to 6.74,4.78 to 72.9
CCCC[C@H]1C(=O)N(C)[C@@H](CCSC)C(=O)N[C@@H](C)C(=O)NC(C(=O)NCC(N)=O)CSCC(=O)N[C@@H](Cc2ccc(O)cc2)C(=O)N(C)[C@@H](C)C(=O)N[C@@H](CC(N)=O)C(=O)N2CCC[C@H]2C(=O)N[C@@H](CN)C(=O)N[C@@H](CC(C)C)C(=O)N2C[C@H](O)C[C@H]2C(=O)N[C@@H](Cc2c[nH]c3ccccc23)C(=O)N[C@@H](CO)C(=O)N[C@@H](Cc2c[nH]c3ccccc23)C(=O)N1C (stereo partly shown) [Example 9087],–,0.385 to 6.74,0.158 to 4.71
"CCCC[C@H]1C(=O)N2CCC[C@H]2C(=O)N[C@@H](CC(=O)O)C(=O)N[C@@H](C(C)C)C(=O)N(C)[C@@H](Cc2ccccc2)C(=O)N[C@@H](Cc2ccc(O)cc2)C(=O)N(C)CC(=O)N[C@@H](Cc2c[nH]c3ccccc23)C(=O)N[C@@H](Cc2ccc(O)cc2)C(=O)N[C@@H](CC(C)C)C(=O)N[C@H](C(=O)NCC(N)=O)CSCC(=O)N[C@@H](Cc2ccccc2)C(=O)N(C)[C@@H](Cc2ccccc2)C(=O)N1C [Example 3068] (HELM PEPTIDE1{[O=C(C[*:3])[*:2]].F.[meF].[CCCC[C@@H](C(=O)[*:2])N(C)[*:1]].P.D.V.[meF].Y.[Sar].W.Y.L.C.G.[am]}$PEPTIDE1,PEPTIDE1,1:R3-14:R3$$$V2.0)",> 74.3,> 30.5,–
CCCC[C@H]1C(=O)N[C@@H](CCCNC(=N)N)C(=O)NC(C(=O)NCC(N)=O)CSCC(=O)N[C@@H](Cc2ccc(O)cc2)C(=O)N(C)[C@@H](C)C(=O)N[C@@H](CC(N)=O)C(=O)N2CCC[C@H]2C(=O)N[C@@H](Cc2cnc[nH]2)C(=O)N[C@@H](CC(C)C)C(=O)N2C[C@H](O)C[C@H]2C(=O)N[C@@H](Cc2c[nH]c3ccccc23)C(=O)N[C@@H](CO)C(=O)N[C@@H](Cc2csc3ccccc23)C(=O)N(C)[C@@H](CCSC)C(=O)N1C (stereo partly shown) [Example 9025] ({CH2CO}-Y[NMeA]NPHL[Hyp]WS[Bta][NMeM][NMeNle]R[ξC]G-NH2; thioether N-14),–,0.385 to 6.74,0.158 to 4.71
"CCCC[C@H]1C(=O)N(C)CC(=O)N[C@@H](CC(=O)O)C(=O)N[C@@H](C(C)C)C(=O)N(C)[C@@H](Cc2ccccc2)C(=O)N[C@@H](Cc2ccc(O)cc2)C(=O)N2CCC[C@H]2C(=O)N[C@@H](Cc2c[nH]c3ccccc23)C(=O)N[C@@H](Cc2ccc(O)cc2)C(=O)N[C@@H](CC(C)C)C(=O)N[C@H](C(=O)NCC(N)=O)CSCC(=O)N[C@@H](Cc2ccccc2)C(=O)N(C)[C@@H](Cc2ccccc2)C(=O)N1C [Example 3069] (HELM PEPTIDE1{[O=C(C[*:3])[*:2]].F.[meF].[CCCC[C@@H](C(=O)[*:2])N(C)[*:1]].[Sar].D.V.[meF].Y.P.W.Y.L.C.G.[am]}$PEPTIDE1,PEPTIDE1,1:R3-14:R3$$$V2.0)",> 74.3,> 30.5,–
CCCC[C@H]1C(=O)N(C)[C@@H](CCCC)C(=O)N[C@@H](CCCNC(=N)N)C(=O)N[C@H](C(=O)NCC(N)=O)CSCC(=O)N[C@@H](Cc2ccc(O)cc2)C(=O)N(C)[C@@H](C)C(=O)N[C@@H](CC(N)=O)C(=O)N2CCC[C@H]2C(=O)N[C@@H](CN)C(=O)N[C@@H](CC(C)C)C(=O)N2CCC[C@H]2C(=O)N[C@@H](Cc2c[nH]c3ccccc23)C(=O)N[C@@H](CO)C(=O)N[C@@H](Cc2c[nH]c3ccccc23)C(=O)N1C [Example 1113] ({CH2CO}-Y[NMeA]NP[Dap]LPWSW[NMeNle][NMeNle]RCG-NH2; thioether N-14),0.158 to 4.71,0.385 to 6.74,–
"CCCC[C@H]1C(=O)N[C@@H](CCCNC(=N)N)C(=O)N[C@H](C(=O)NCC(N)=O)CSCC(=O)N[C@@H](Cc2ccccc2)C(=O)N(C)[C@@H](C)C(=O)N[C@@H](CC(N)=O)C(=O)N2CCC[C@H]2C(=O)N[C@@H](Cc2cnc[nH]2)C(=O)N[C@@H](CC(C)C)C(=O)N(C)CC(=O)N[C@@H](Cc2c[nH]c3ccccc23)C(=O)N[C@@H](CO)C(=O)N[C@@H](Cc2c[nH]c3ccccc23)C(=O)N2CCC[C@H]2C(=O)N1C [Example 1005] (HELM PEPTIDE1{[O=C(C[*:3])[*:2]].F.[meA].N.P.H.L.[Sar].W.S.W.P.[CCCC[C@@H](C(=O)[*:2])N(C)[*:1]].R.C.G.[am]}$PEPTIDE1,PEPTIDE1,1:R3-15:R3$$$V2.0)",> 74.3,> 30.5,–
"CCCC[C@H]1C(=O)N(C)CC(=O)N[C@@H](CC(=O)O)C(=O)N[C@@H](C(C)C)C(=O)N(C)[C@@H](Cc2ccccc2)C(=O)N[C@@H](Cc2ccc(O)cc2)C(=O)N(C)CC(=O)N[C@@H](Cc2c[nH]c3ccccc23)C(=O)N[C@@H](Cc2ccc(OC)c(OC)c2)C(=O)N[C@@H](CC(C)C)C(=O)N[C@H](C(=O)NCC(N)=O)CSCC(=O)N[C@@H](Cc2ccccc2)C(=O)N(C)[C@@H](Cc2ccccc2)C(=O)N1C [Example 3541] ({CH2CO}-F[NMeF][NMeNle][Sar]DV[NMeF]Y[Sar]W[Phe(3,4-(OMe)2)]LCG-NH2; thioether N-13)",–,> 30.5,> 74.3
"CC(C)C[C@@H]1NC(=O)[C@H](Cc2ccc(O)cc2)NC(=O)[C@H](Cc2c[nH]c3ccccc23)NC(=O)CN(C)C(=O)[C@H](Cc2ccc(O)cc2)NC(=O)[C@H](Cc2ccccc2)N(C)C(=O)[C@H](C(C)C)NC(=O)[C@H](CC(=O)O)NC(=O)CN(C)C(=O)[C@H](Cc2ccc(O)cc2)N(C)C(=O)[C@H](Cc2ccccc2)N(C)C(=O)[C@H](Cc2ccccc2)NC(=O)CSC[C@@H](C(=O)NCC(N)=O)NC1=O [Example 3060-B] (HELM PEPTIDE1{[O=C(C[*:3])[*:2]].F.[meF].[meY].[Sar].D.V.[meF].Y.[Sar].W.Y.L.C.G.[am]}$PEPTIDE1,PEPTIDE1,1:R3-14:R3$$$V2.0)",> 74.3,> 30.5,–
CCCC[C@H]1C(=O)N[C@@H](CCCNC(=N)N)C(=O)NC(C(=O)NCC(N)=O)CSCC(=O)N[C@@H](Cc2ccc(O)cc2)C(=O)N(C)[C@@H](C)C(=O)N[C@@H](CC(N)=O)C(=O)N2CCC[C@H]2C(=O)N[C@@H](CO)C(=O)N[C@@H](CC(C)C)C(=O)N2C[C@H](O)C[C@H]2C(=O)N[C@@H](Cc2c[nH]c3ccccc23)C(=O)N[C@@H](CO)C(=O)N[C@@H](Cc2csc3ccccc23)C(=O)N(C)[C@@H](CCSC)C(=O)N1C (stereo partly shown) [Example 9099] ({CH2CO}-Y[NMeA]NPSL[Hyp]WS[Bta][NMeM][NMeNle]R[ξC]G-NH2; thioether N-14),–,0.385 to 6.74,0.158 to 4.71
